What was measured:
[1] = Toxicology study of AVR-48, IV dose escalation and repeat dose phases; assay type: in vivo, Sprague Dawley rats
Description: For the PK study of AVR-48 in rats, a formulation consisting of 10% DMSO, 20% tetraglycol, 20% PEG 400, and 50% sterile water was developed. Each preparation was made on the same day of dose administration. The components of the control/vehicle item formulation were added sequentially. Briefly, the appropriate volume of DMSO (10% of the final volume) was measured into a container followed by gradual addition of PEG 400 (20% of the final volume) and sterile water (50% of the final volume) to make up the volume and mixed thoroughly till completely dissolved. The final solution was filtered through a 0.22 µm membrane filter (Millipore Millex® GP PES, St. Louis, MO, USA) into a sterile vial.
The toxicology study of AVR-48 was performed with both 8–10 week old male and female Sprague Dawley rats, in two phases following standard FDA guidance [M3(R2)R]. AVR-48 was injected IV at a volume of 5 mL/kg of body weight after reconstituting in 10% DMSO, 20% tetraglycol, and 20% PEG 400 in sterile water. In the dose escalation phase, 75 to 100 mg/kg per day was administered as two separate doses approximately 6–7 h apart by IV slow bolus injection at a volume of 5 mL/kg of body weight. Three animals of each sex were dosed at each dose level. During the repeat dose phase, daily doses of 0, 40, and 80 mg/kg/day were administered as two divided doses delivered by slow bolus injection at a volume of 5 mL/kg of body weight approximately 6–7 h apart. Study animals (n = 5/sex/dose) were treated for three days with a total of six doses for AVR-48. Twelve to eighteen hours after the last dose was administered, animals were euthanized and blood collected for analysis of clinical chemistry and other hematological parameters. Detailed necropsy examinations were performed on each animal, and tissues were collected and fixed with standard fixatives for histological analysis and interpretation.

[2] = Pharmacokinetic study, bronchoalveolar lavage fluid (BALF); assay type: in vivo, Sprague Dawley rats
Description: All PK studies were also conducted with 8–10-week-old male and female Sprague Dawley rats. An additional nine animals/sex/dose were used for PK analysis and blood (approximately 0.3 mL each) was collected from each rat on days 1 and 3 of the treatment period at time points of 5, 30, 60, 90, 120, and 180 min, and 6, 12 h, and 24 h post dose that were randomized to provide a total of three samples/sex for each time point. Samples were collected by jugular venipuncture and the samples were collected into tubes containing the anticoagulant, K3EDTA. The collection of BALF was limited to the terminal time points of 6 h, 12 h, and 24 h. AVR-48 concentrations in the blood and BALF were determined using LC/MS/MS analysis developed in house. PK parameters were estimated using Phoenix pharmacokinetic software (Certara, Princeton, NJ, USA) using a non-compartmental approach consistent with the IV bolus injection.

CLP-induced sepsis mice = assay: CLP-induced sepsis survival study; assay type: in vivo, C57BL6/J mice; details: AVR-48 10 mg/kg IV at 16 h and 24 h after CLP, imipenem 5 mg/kg SC at 30 min; 10 days; CLP alone 100% mortality within 72 h
Description: For CLP-induced lung injury, CLP was performed as previously described by us. As antibiotics are the standard of care in sepsis patients, one dose of imipenem was given SC at 5 mg/kg 30 min after the procedure, followed by two doses of AVR-48 (10 mg/kg, IV) at 16 h and 24 h following the surgery, and sacrificed after 72 h. The sham mice (controls) had the abdominal cavity opened, the cecum was not perforated, and the peritoneum was stitched back.
For the survival study of CLP-induced ALI, mice were injected with 2 doses of AVR-48 (IV) followed by 1 dose of imipenem (SC) as described in the CLP methodology, and allowed to survive for 10 days. Sterility was maintained throughout the procedure by operating the animals under a laminar hood. Following the procedure, the animals were returned back to the animal room for subsequent monitoring and follow up. The body temperature was recorded every 24h and feeding and social behavior was also observed. They were fed with semisolid food for 48h before resuming their regular chow diet. All mice were sacrificed after 10 days. (N=3 for sham and 5 for the rest of the groups). A CLP + imipenem group was not done in this study, as we have published this group […]
imipenem, better than CLP + imipenem alone. Histopathology of the vital organs was performed and scored as previously published (37, 38) and noted in the methods section of this paper.

hPBMC = system: hPBMC; parameters: method as in earlier work; details: cited from earlier work

## CC(=O)N[C@H]1[C@H](Oc2ccc([N+](=O)[O-])cc2)O[C@H](CO)[C@@H](O)[C@@H]1O [AVR-48, N-((2S,3R,4R,5S,6R)-4,5-dihydroxy-6-(hydroxymethyl)-2-(4-nitrophenoxy)tetrahydro-2H-pyran-3-yl) acetamide]
[1]; 40 and 80 mg/kg/day as two daily doses of 20 and 40 mg/kg for three consecutive days, IV
  tolerability, repeat administration: well tolerated with no adverse clinical signs
[1]; IV for three consecutive days, up to 80 mg/kg/day
  hematology and clinical chemistry parameters: no changes in any of the hematology or clinical chemistry parameters
[1]; both sexes, Sprague Dawley, rat, in vivo, IV, two daily doses for three consecutive days, male and female rats
  MTD at 3 days: 80 mg/kg/day
[1]; both sexes, Sprague Dawley, rat, in vivo, IV, two daily doses for three consecutive days, male and female rats, read-out: no observable adverse effect level (NOAEL)
  NOAEL at 3 days: 80 mg/kg/day
[1]; dose escalation, 75 mg/kg/day IV
  adverse signs: No adverse signs were observed
[1]; dose escalation, 100 mg/kg total daily dose IV
  mortality: A single animal that received a total daily dose of 100 mg/kg died
[1]; dose escalation, 100 mg/kg total daily dose, two IV bolus 6-7 h apart
  clinical signs: clinical signs of hypoactivity, respiratory changes, changes in posture, and loss of motor coordination were observed
[1]; rat MTD/NOAEL vs 10 mg/kg efficacious dose in mouse
  therapeutic window over the efficacious dose: ~8 fold
[1]; repeat dose IV
  systemic gross observations at necropsy: no evidence of any AVR-48 related systemic gross observations at necropsy
[2]; 6 h post administration
  AVR-48 in BALF: measurable concentrations
[2]; Sprague Dawley, rat, BALF (bronchoalveolar lavage fluid) relative to plasma, intravenous, 6 h time point, read-out: BALF-to-plasma ratio
  Kp at 6 h: 2.81 to 9.08
[2]; by 12 h
  AVR-48 in BALF: below the limit of detection
CLP-induced sepsis mice
  survival: 80%
hPBMC; in vitro hPBMC model
  TNF-α: decreases TNF-α
hPBMC; with or without LPS
  IL-10 expression: increased IL-10 expression

— article PMC7961996, “Small Immunomodulatory Molecules as Potential Therapeutics in Experimental Murine Models of Acute Lung Injury (ALI)/Acute Respiratory Distress Syndrome (ARDS)” (International Journal of Molecular Sciences, 2021)
